{"source": "patent US12091425B2", "about": "(AMGEN INC., priority 2016, dated 2024)", "key": {"[1]": {"test_system": "OPM-2 human multiple myeloma cell line", "experiment": "Cell Viability Assay (OPM-2 10 FBS)", "format": "cell-based", "conditions": "Homo sapiens, OPM-2, 16 h, OPM-2 cells, 16 h incubation, CellTiter-Glo", "outline": "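Plated at 3000 cells/well in 10% FBS complete medium, the cells received a serial compound dilution series and incubated 16 h at 37 °C with 5% CO2. CellTiter-Glo was then added; IC50 values were fitted with a logistic 4-parameter model.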"}, "[2]": {"biological_target": "T1, Mcl-1/Bim interaction, recombinant human Mcl-1 (171-327) (Homo sapiens, UniProt Q07820)", "T1 construct": "made in house", "T1 sequence (Q07820 171-327)": "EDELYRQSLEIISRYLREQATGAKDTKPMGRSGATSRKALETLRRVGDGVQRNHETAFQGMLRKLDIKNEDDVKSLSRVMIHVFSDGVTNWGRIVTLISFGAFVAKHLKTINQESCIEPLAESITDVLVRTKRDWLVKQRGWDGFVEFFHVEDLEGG", "experiment": "Cell free Mcl-1: Bim Affinity Assay (Mcl-1 HTRF)", "format": "binding", "conditions": "TR-FRET, 0.1 nM Mcl-1 (171-327), 0.05 nM biotin-Bim (51-76)", "outline": "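Compounds were mixed with the protein and a biotinylated Bim peptide spanning human residues 51-76. Plates were left overnight, then TR-FRET signal was measured. A four-parameter sigmoidal model applied to duplicate competition data gave IC50.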"}}, "note": "Several values for one entry are separate records, joined by “and”; a condition that tells them apart may be missing. Equal values may be shown once. Read-outs that look alike come from different tables or passages of the source."}
{"compound": "O=C1NS(=O)(=O)[C@H]2CCC[C@H](C=C[C@H](O)[C@@H]3CC[C@H]3CN3C[C@@]4(CCCc5cc(Cl)ccc54)COc4ccc1cc43)C2", "note": "(single isomer, unassigned)", "values": [{"measurement": "ring closure, isolated yield", "setting": "from NS(=O)(=O)[C@H]1CCC[C@H](/C=C/[C@H](O)[C@@H]2CC[C@H]2CN2C[C@@]3(CCCc4cc(Cl)ccc43)COc3ccc(C(=O)O)cc32)C1, amide bond, 16-membered ring, EDC/DMAP, DCM, 2.0 mM, 64.0 h", "result": 20, "unit": "%"}]}
{"compound": "CC(C)(C)[Si](C)(C)OC[C@H]1CC=CC[C@H](O)[C@@H]2CC[C@H]2CN2C[C@@]3(CCCc4cc(Cl)ccc43)COc3ccc(cc32)C(=O)NS1(=O)=O", "values": [{"measurement": "ring closure, isolated yield", "setting": "from C=CC[C@H](CO[Si](C)(C)C(C)(C)C)S(=O)(=O)NC(=O)c1ccc2c(c1)N(C[C@@H]1CC[C@H]1[C@@H](O)CC=C)C[C@@]1(CCCc3cc(Cl)ccc31)CO2, rcm bond, 16-membered ring, Hoveyda-Grubbs II (20 mol%), toluene, 0.72 mM, 106.0 °C, 2.0 h", "result": 85.9, "unit": "%"}]}
{"compound": "(1S,3′R,6′R,7′S,8′E,12′R)-12′-((2S)-2-((tert-butyl(diphenyl)silyl)oxy)propyl)-6-chloro-7′-hydroxy-3,4-dihydro-2h,15′h-spiro[naphthalene-1,22′-[20]oxa[13]thia[1,14]diazatetracyclo[14.7.2.0^3,6.0^19,24]pentacosa[8,16,18,24]tetraen]-15′-one 13′,13′-dioxide or (1S,3′R,6′R,7′S,8′E,12′S)-12′-((2S)-2-((tert-butyl(diphenyl)silyl)oxy)propyl)-6-chloro-7′-hydroxy-3,4-dihydro-2h,15′h-spiro[naphthalene-1,22′-[20]oxa[13]thia[1,14]diazatetracyclo[14.7.2.0^3,6.0^19,24]pentacosa[8,16,18,24]tetraen]-15′-one 13′,13′-dioxide", "values": [{"measurement": "ring closure, isolated yield", "setting": "rcm bond, 16-membered ring, Hoveyda-Grubbs II, DCM, 2.7 mM, 45.0 °C", "result": 32, "unit": "%"}]}
{"compound": "C[C@H]1CS(=O)(=O)NC(=O)c2ccc3c(c2)N(C[C@@H]2CC[C@H]2[C@@H](O)C=C[C@H]1CO[Si](c1ccccc1)(c1ccccc1)C(C)(C)C)C[C@@]1(CCCc2cc(Cl)ccc21)CO3", "note": "(single isomer, unassigned)", "values": [{"measurement": "ring closure, isolated yield", "setting": "from C[C@@H](CS(N)(=O)=O)[C@@H](/C=C/[C@H](O)[C@@H]1CC[C@H]1CN1C[C@@]2(CCCc3cc(Cl)ccc32)COc2ccc(C(=O)O)cc21)CO[Si](c1ccccc1)(c1ccccc1)C(C)(C)C, amide bond, 16-membered ring, EDC/DMAP, DCM, 2.0 mM, 16.0 h, 3 steps", "result": 10.8, "unit": "%"}]}
{"compound": "O=C1NS(=O)(=O)C[C@H]2C[C@H]2/C=C/[C@H](O)[C@@H]2CC[C@H]2CN2C[C@@]3(CCCc4cc(Cl)ccc43)COc3ccc1cc32", "note": "(mixture of isomers)", "values": [{"measurement": "ring closure, isolated yield", "setting": "from C=C[C@H](O)[C@@H]1CC[C@H]1CN1C[C@@]2(CCCc3cc(Cl)ccc32)COc2ccc(C(=O)NS(=O)(=O)C[C@@H]3C[C@@H]3/C=C/C)cc21, rcm bond, 16-membered ring, Hoveyda-Grubbs II, DCE, 1.99 mM, 60.0 °C, 6.0 h", "result": 29, "unit": "%"}]}
{"compound": "C[C@]12CC[C@H]1CN1C[C@@]3(CCCc4cc(Cl)ccc43)COc3ccc(cc31)C(=O)NS(=O)(=O)CC/C=C\\C[C@@H]2O", "values": [{"measurement": "ring closure, isolated yield", "setting": "from C=CCCS(=O)(=O)NC(=O)c1ccc2c(c1)N(C[C@H]1CC[C@@]1(C)[C@@H](O)CC=C)C[C@@]1(CCCc3cc(Cl)ccc31)CO2, rcm bond, 16-membered ring, Hoveyda-Grubbs II, toluene, 1.0 mM, 1.5 h", "result": 83, "unit": "%"}]}
{"compound": "C[C@@H]1[C@H]2/C=C/[C@H](O)[C@@H]3CC[C@H]3CN3C[C@@]4(CCCc5cc(Cl)ccc54)COc4ccc(cc43)C(=O)NS(=O)(=O)[C@H]1CCC2", "values": [{"measurement": "ring closure, isolated yield", "setting": "from C[C@H]1[C@H](/C=C/[C@H](O)[C@@H]2CC[C@H]2CN2C[C@@]3(CCCc4cc(Cl)ccc43)COc3ccc(C(=O)O)cc32)CCC[C@H]1S(N)(=O)=O, amide bond, 16-membered ring, EDC/DMAP, DCM, 2.0 mM", "result": 11.6, "unit": "%"}]}
{"compound": "C[C@@H]1[C@@H](C)C/C=C/[C@@H](O)[C@@H]2CC[C@H]2CN2C[C@@]3(CCCc4cc(Cl)ccc43)COc3ccc(cc32)C(=O)NS1(=O)=O", "values": [{"measurement": "ring closure, isolated yield", "setting": "from C=CC[C@H](C)[C@@H](C)S(=O)(=O)NC(=O)c1ccc2c(c1)N(C[C@@H]1CC[C@H]1[C@H](O)/C=C/CCC)C[C@@]1(CCCc3cc(Cl)ccc31)CO2, rcm bond, 16-membered ring, Hoveyda-Grubbs II (10 mol%), DCE, 1.87 mM, 80.0 °C", "result": 12.9, "unit": "%"}]}
{"compound": "COC[C@@]1(C)CC=C[C@H](O)[C@@H]2CC[C@H]2CN2C[C@@]3(CCCc4cc(Cl)ccc43)COc3ccc(cc32)C(=O)NS1(=O)=O", "note": "(single isomer, unassigned)", "values": [{"measurement": "ring closure, isolated yield", "setting": "from COC[C@@](C)(C/C=C/[C@H](O)[C@@H]1CC[C@H]1CN1C[C@@]2(CCCc3cc(Cl)ccc32)COc2ccc(C(=O)O)cc21)S(N)(=O)=O, amide bond, 15-membered ring", "result": "8.8% and 7.5%"}]}
{"compound": "(1S,3′R,6′R,7′S,8′E,12′R)-12′-((2S)-2-((tert-butyl(diphenyl)silyl)oxy)propyl)-6-chloro-7′-hydroxy-3,4-dihydro-2h,15′h-spiro[naphthalene-1,22′-[20]oxa[13]thia[1,14]diazatetracyclo[14.7.2.0^3,6.0^19,24]pentacosa[8,16,18,24]tetraen]-15′-one 13′,13′-dioxide] or (1S,3′R,6′R,7′S,8′E,12′S)-12′-((2S)-2-((tert-butyl(diphenyl)silyl)oxy)propyl)-6-chloro-7′-hydroxy-3,4-dihydro-2h,15′h-spiro[naphthalene-1,22′-[20]oxa[13]thia[1,14]diazatetracyclo[14.7.2.0^3,6.0^19,24]pentacosa[8,16,18,24]tetraen]-15′-one 13′,13′-dioxide", "values": [{"measurement": "ring closure, isolated yield", "setting": "rcm bond, 16-membered ring, Hoveyda-Grubbs II (20 mol%), DCM, 1.5 mM, 45.0 °C", "result": 27, "unit": "%"}]}
{"compound": "CN1CC=CCS(=O)(=O)NC(=O)c2ccc3c(c2)N(C[C@@H]2CC[C@H]2C1=O)C[C@@]1(CCCc2cc(Cl)ccc21)CO3", "note": "(single isomer, unassigned)", "values": [{"measurement": "ring closure, isolated yield", "setting": "from C=CCN(C)C(=O)[C@@H]1CC[C@H]1CN1C[C@@]2(CCCc3cc(Cl)ccc32)COc2ccc(C(=O)NS(=O)(=O)CC=C)cc21, rcm bond, 16-membered ring, Hoveyda-Grubbs II, toluene, 1.0 mM, 1.5 h", "result": 48, "unit": "%"}]}
{"compound": "(1S,3′R,6′R,7′S,9′Z,12′S)-6-chloro-7′-hydroxy-12′-(trifluoromethyl)-3,4-dihydro-2H,15′H-spiro[naphthalene-1,22′-[20]oxa[13]thia[1,14]diazatetracyclo[14.7.2.0^3,6.0^19,24]pentacosa [9,16,18,24]tetraen]-15′-one 13′,13′-dioxide and [...] (1S,3′R,6′R,7′S,9′E,12′S)-6-chloro-7′-hydroxy-12′-(trifluoromethyl)-3,4-dihydro-2H,15′H-spiro[naphthalene-1,22′-[20]oxa[13]thia[1,14]diazatetracyclo[14.7.2.0^3,6.0^19,24]pentacosa [9,16,18,24]tetraen]-15′-one 13′,13′-dioxide and (1S,3′R,6′R,7′S,9′E,12′R)-6-chloro-7′-hydroxy-12′-(trifluoromethyl)-3,4-dihydro-2H,15′H-spiro[naphthalene-1,22′-[20]oxa[13]thia[1,14]diazatetracyclo[14.7.2.0^3,6.0^19,24]pentacosa [9,16,18,24]tetraen]-15′-one 13′,13′-dioxide", "values": [{"measurement": "ring closure, isolated yield", "setting": "rcm bond, 16-membered ring, Hoveyda-Grubbs II, toluene, 2.4 mM, 101.0 °C", "result": 63, "unit": "%"}]}
{"compound": "C[C@@H]1CC/C=C/[C@H](O)[C@]2(C)CC[C@H]2CN2C[C@@]3(CCCc4cc(Cl)ccc43)COc3ccc(cc32)C(=O)NS1(=O)=O", "values": [{"measurement": "ring closure, isolated yield", "setting": "from C=CCC[C@@H](C)S(=O)(=O)NC(=O)c1ccc2c(c1)N(C[C@@H]1CC[C@@]1(C)[C@@H](O)C=C)C[C@@]1(CCCc3cc(Cl)ccc31)CO2, rcm bond, 16-membered ring, Hoveyda-Grubbs II, DCM, 2.0 mM, […]", "result": 12.4, "unit": "%"}]}
{"compound": "COc1ccc(CN2CC=CCS(=O)(=O)NC(=O)c3ccc4c(c3)N(C[C@@H]3CC[C@H]3C2=O)C[C@@]2(CCCc3cc(Cl)ccc32)CO4)cc1", "note": "(single isomer, unassigned)", "values": [{"measurement": "ring closure, isolated yield", "setting": "from C=CCN(Cc1ccc(OC)cc1)C(=O)[C@@H]1CC[C@H]1CN1C[C@@]2(CCCc3cc(Cl)ccc32)COc2ccc(C(=O)NS(=O)(=O)CC=C)cc21, rcm bond, 16-membered ring, Hoveyda-Grubbs II, toluene, 1.0 mM, 110.0 °C, 1.5 h", "result": 51, "unit": "%"}]}
{"compound": "COCCN1[C@@H](C)CC=C[C@H](O)[C@@H]2CC[C@H]2CN2C[C@@]3(CCCc4cc(Cl)ccc43)COc3ccc(cc32)C(=O)NS1(=O)=O", "values": [{"measurement": "ring closure, isolated yield", "setting": "from C=CC[C@H](C)N(CCOC)S(=O)(=O)NC(=O)c1ccc2c(c1)N(C[C@@H]1CC[C@H]1[C@@H](O)C=C)C[C@@]1(CCCc3cc(Cl)ccc31)CO2, rcm bond, 16-membered ring, Hoveyda-Grubbs II, 1,2-dichloroethane, 2.0 mM, 60.0 °C, 18.0 h", "result": 37, "unit": "%"}]}
{"compound": "C=CC[C@@H](O)[C@H](C)S(=O)(=O)NC(=O)c1ccc2c(c1)N(C[C@@H]1CC[C@H]1[C@@H](O)/C=C/CCC)C[C@@]1(CCCc3cc(Cl)ccc31)CO2", "values": [{"measurement": "ring closure, isolated yield", "setting": "the molecule shown is the open-chain precursor, rcm bond, 16-membered ring, Hoveyda-Grubbs II (50 mol%), AcOH, 8.6 mM, 60.0 °C", "result": 24.5, "unit": "%"}]}
{"compound": "C[C@H]1CC=C[C@H](O)[C@@H]2CC[C@H]2CN2C[C@@]3(CCCc4cc(Cl)ccc43)COc3ccc(cc32)C(=O)NS(=O)(=O)N1CC1CC1", "values": [{"measurement": "ring closure, isolated yield", "setting": "from C=CC[C@H](C)N(CC1CC1)S(=O)(=O)NC(=O)c1ccc2c(c1)N(C[C@@H]1CC[C@H]1[C@@H](O)C=C)C[C@@]1(CCCc3cc(Cl)ccc31)CO2, rcm bond, 16-membered ring, Hoveyda-Grubbs II, 1,2-dichloroethane, 1.5 mM, 50.0 °C, 24.0 h", "result": 45, "unit": "%"}]}
{"compound": "O=C1NS(=O)(=O)[C@@H]2C[C@H]2C/C=C/[C@H](O)[C@@H]2CC[C@H]2CN2C[C@@]3(CCCc4cc(Cl)ccc43)COc3ccc1cc32", "values": [{"measurement": "ring closure, isolated yield", "setting": "from C=CCC1C[C@H]1S(=O)(=O)NC(=O)c1ccc2c(c1)N(C[C@@H]1CC[C@H]1[C@@H](O)C=C)C[C@@]1(CCCc3cc(Cl)ccc31)CO2, rcm bond, 16-membered ring, Hoveyda-Grubbs II, AcOH, 0.915 mM, 36.0 h", "result": 55, "unit": "%"}]}
{"compound": "C[C@@H]1[C@@H](C)S(=O)(=O)NC(=O)c2ccc3c(c2)N(C[C@@H]2CC[C@H]2[C@@H](OCCN2CCOCC2)/C=C/[C@@H]1C)C[C@@]1(CCCc2cc(Cl)ccc21)CO3", "note": "[Example 1049, (1S,3′R,6′R,7′S,8′E,10′S,11′S,12′R)-6-chloro-10′,11′,12′-trimethyl-7′-(2-(4-morpholinyl)ethoxy)-3,4-dihydro-2H,15′H-spiro[naphthalene-1,22′-[20]oxa[13]thia[1,14]diazatetracyclo[14.7.2.0^3,6.0^19,24]pentacosa [8,16,18,24]tetraen]-15′-one 13′,13′-dioxide]", "values": [{"measurement": "IC50", "setting": "[1]", "result": 0.127, "unit": "µM"}, {"measurement": "IC50", "setting": "[2]", "result": 0.000264, "unit": "µM"}]}
